Assay results: ChEMBL document CHEMBL1201862, “PubChem BioAssay data set” (2004)
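All cell lines were grown in 96-well plates and treated with compound for 48 hours. GI50 = concentration required for 50% inhibition of growth.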 Active and inactive are the calls of the source. Cut-off read from the data, not from the text of the source: active = GI50 up to about 1.1 µM and inactive = higher.

Key:
Test in all cases: DTP human tumour cell line panel, 48 h
SR = system: SR
NCI-H23 = system: NCI-H23
OVCAR-3 = system: OVCAR-3
SNB-78 = system: SNB-78
LOX IMVI = system: LOX IMVI
A549 = system: A549
HOP-92 = system: HOP-92
HOP-62 = system: HOP-62
NCI-H522 = system: NCI-H522
SK-OV-3 = system: SK-OV-3
UO-31 = system: UO-31
HCT-15 = system: HCT-15
CAKI-1 = system: CAKI-1
SF-268 = system: SF-268
SN12C = system: SN12C
EKVX = system: EKVX
RXF 393 = system: RXF 393
SK-MEL-2 = system: SK-MEL-2
SK-MEL-5 = system: SK-MEL-5
NCI-H226 = system: NCI-H226
UACC-257 = system: UACC-257
RXF 631 = system: RXF 631
M19-MEL = system: M19-MEL
DMS-114 = system: DMS-114
A498 = system: A498
U-251 = system: U-251
SF-539 = system: SF-539
DLD-1 = system: DLD-1
HL-60 = system: HL-60
786-0 = system: 786-0
UACC-62 = system: UACC-62
Malme-3M = system: Malme-3M
RPMI-8226 = system: RPMI-8226
TK-10 = system: TK-10
SNB-75 = system: SNB-75
HT-29 = system: HT-29
OVCAR-4 = system: OVCAR-4
HCC 2998 = system: HCC 2998
M14 = system: M14
IGROV-1 = system: IGROV-1
HCT-116 = system: HCT-116
KM-20L2 = system: KM-20L2
SW-620 = system: SW-620
NCI-H460 = system: NCI-H460
OVCAR-5 = system: OVCAR-5
LXFL 529 = system: LXFL 529
OVCAR-8 = system: OVCAR-8
ACHN = system: ACHN
SK-MEL-28 = system: SK-MEL-28
SF-295 = system: SF-295
DMS-273 = system: DMS-273
MOLT-4 = system: MOLT-4
KM12 = system: KM12
CCRF-CEM = system: CCRF-CEM
HOP-18 = system: HOP-18
COLO 205 = system: COLO 205
SNB-19 = system: SNB-19
K562 = system: K562

Measured: GI50

CCCCCC(=O)OC[n+]1ccc2c(C)c3[nH]c4ccccc4c3c(C)c2c1
0.389 µM: HCT-15
active: SR 0.281 µM | NCI-H23 0.857 µM | SNB-78 0.995 µM | LOX IMVI 0.514 µM | A549 0.586 µM | SF-268 0.796 µM | SN12C 0.489 µM | EKVX 0.628 µM | RXF 631 0.408 µM | M19-MEL 1.02 µM | DMS-114 1.02 µM | U-251 0.656 µM | SF-539 0.817 µM | DLD-1 0.45 µM | 786-0 0.405 µM | RPMI-8226 0.288 µM | HT-29 0.482 µM | OVCAR-4 1.1 µM | HCC 2998 0.787 µM | HCT-116 0.373 µM | KM-20L2 0.612 µM | SW-620 0.446 µM | NCI-H460 0.142 µM | LXFL 529 1.02 µM | OVCAR-8 0.474 µM | ACHN 0.738 µM | SF-295 0.946 µM | DMS-273 0.141 µM | MOLT-4 0.327 µM
inactive: OVCAR-3 1.19 µM | HOP-92 2.48 µM | HOP-62 1.24 µM | NCI-H522 1.49 µM | SK-OV-3 1.92 µM | UO-31 2.65 µM | CAKI-1 1.82 µM | RXF 393 1.23 µM | SK-MEL-2 3.61 µM | SK-MEL-5 1.51 µM | NCI-H226 1.32 µM | UACC-257 1.57 µM | A498 1.35 µM | HL-60 2.99 µM | UACC-62 1.56 µM | Malme-3M 1.54 µM | TK-10 3.08 µM | SNB-75 1.49 µM | M14 1.42 µM | IGROV-1 1.75 µM | OVCAR-5 1.28 µM | SK-MEL-28 1.43 µM

CC1=C(/C=C/C(C)=C/C=C/C(C)=C/C=C/C=C(C)/C=C/C=C(C)/C=C/C=C(C)/C=C/C=C(\C)C(=O)O)C(C)(C)CCC1
inactive: NCI-H23 > 100 µM | OVCAR-3 > 100 µM | SNB-78 > 100 µM | A549 > 100 µM | HOP-62 > 100 µM | NCI-H522 > 100 µM | SK-OV-3 > 100 µM | UO-31 > 100 µM | CAKI-1 > 100 µM | SF-268 > 100 µM | SN12C > 100 µM | EKVX > 100 µM | RXF 393 > 100 µM | SK-MEL-2 > 100 µM | SK-MEL-5 > 100 µM | NCI-H226 > 100 µM | UACC-257 > 100 µM | RXF 631 > 100 µM | DMS-114 > 100 µM | A498 > 100 µM | KM12 > 100 µM | U-251 > 100 µM | SF-539 > 100 µM | DLD-1 > 100 µM | 786-0 > 100 µM | UACC-62 > 100 µM | Malme-3M > 100 µM | RPMI-8226 > 100 µM | CCRF-CEM > 100 µM | TK-10 > 100 µM | SNB-75 69 µM | HT-29 > 100 µM | OVCAR-4 > 100 µM | M14 > 100 µM | COLO 205 > 100 µM | IGROV-1 > 100 µM | HCT-116 > 100 µM | SNB-19 > 100 µM | KM-20L2 > 100 µM | SW-620 > 100 µM | NCI-H460 > 100 µM | OVCAR-5 > 100 µM | K562 > 100 µM | LXFL 529 > 100 µM | OVCAR-8 > 100 µM | ACHN > 100 µM | SK-MEL-28 > 100 µM | SF-295 > 100 µM | DMS-273 > 100 µM | MOLT-4 > 100 µM
active: HOP-18 < 0.01 µM
> 100 µM: HCT-15
